Data set [1] concerns the target T1, 5-hydroxytryptamine receptor 2C (Rattus norvegicus, UniProt P08909).
T1 sequence (P08909 whole entry): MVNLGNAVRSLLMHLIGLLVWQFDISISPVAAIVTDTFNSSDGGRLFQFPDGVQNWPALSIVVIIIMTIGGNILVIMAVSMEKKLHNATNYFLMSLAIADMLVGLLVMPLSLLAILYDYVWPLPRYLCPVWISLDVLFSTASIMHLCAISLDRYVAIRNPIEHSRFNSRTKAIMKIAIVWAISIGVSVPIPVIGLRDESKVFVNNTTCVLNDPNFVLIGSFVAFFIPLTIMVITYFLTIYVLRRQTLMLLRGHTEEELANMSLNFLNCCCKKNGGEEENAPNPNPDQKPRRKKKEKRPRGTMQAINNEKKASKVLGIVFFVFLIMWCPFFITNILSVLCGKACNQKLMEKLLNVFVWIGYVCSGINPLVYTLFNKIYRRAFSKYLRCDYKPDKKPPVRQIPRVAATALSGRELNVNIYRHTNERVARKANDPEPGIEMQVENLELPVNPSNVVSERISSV
Nature of the data set: Displacement of [3H]mesulergine from 5HT2C receptor in rat brain cortex. The data set is classed as tissue-based. For orientation: Loss of bound radioactivity is the signal in a displacement assay; it reports binding, not function.

The target in another data set is Histamine H1 receptor (Cavia porcellus, UniProt P31389). Description: Displacement of [3H]mepyramine from histamine H1 receptor in guinea pig cerebellum.
Data set [2] addresses T2, 5-hydroxytryptamine receptor 1A (Rattus norvegicus, UniProt P19327).
T2 sequence (P19327 whole entry): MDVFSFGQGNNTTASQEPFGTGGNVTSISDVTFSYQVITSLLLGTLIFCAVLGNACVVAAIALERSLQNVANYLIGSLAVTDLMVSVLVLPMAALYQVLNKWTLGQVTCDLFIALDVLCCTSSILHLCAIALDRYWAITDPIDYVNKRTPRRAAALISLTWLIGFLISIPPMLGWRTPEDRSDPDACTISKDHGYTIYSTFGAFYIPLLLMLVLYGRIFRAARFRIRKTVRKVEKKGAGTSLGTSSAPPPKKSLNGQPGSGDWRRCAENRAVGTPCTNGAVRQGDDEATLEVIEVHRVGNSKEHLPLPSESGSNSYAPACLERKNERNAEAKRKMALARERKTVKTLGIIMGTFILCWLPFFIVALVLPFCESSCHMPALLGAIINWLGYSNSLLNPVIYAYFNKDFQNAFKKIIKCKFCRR
Nature of the data set: Displacement of [3H]8-OH-DPAT from 5HT1A receptor in rat brain cortex. Format: tissue-based.

The target in data set [3] is 5-hydroxytryptamine receptor 2A (Rattus norvegicus, UniProt P14842). Nature of the data set: Displacement of [3H]ketanserin from 5HT2A receptor in rat brain cortex. Format: tissue-based.
The next data set addresses D(3) dopamine receptor (Rattus norvegicus, UniProt P19020). Description: Displacement of [3H]7-OH-DPAT from dopamine D3 receptor in rat olfactory tubercle. Format: tissue-based.
The next data set concerns the target D(2) dopamine receptor (Rattus norvegicus, UniProt P61169). Description: Displacement of [3H]spiperone from dopamine D2 receptor in rat striatum.
Data set [4] concerns the target Voltage-gated inwardly rectifying potassium channel KCNH2 (Homo sapiens, UniProt Q12809). Nature of the data set: Inhibition of human ERG.
Data set [5] deals with Mus musculus. Description: Antipsychotic activity in po dosed mouse assessed as reversal of DOI-induced head twitch activity. The data set is classed as functional.
Data set [6] concerns the target 5-hydroxytryptamine receptor 2A (Homo sapiens) (UniProt P28223). Nature of the data set: Agonist activity at […] receptor (unknown origin) at 10 uM relative to 5-HT.
The target in data set [7] is D(2) dopamine receptor (Homo sapiens) (UniProt P14416). Nature of the data set: Agonist activity at dopamine D2 receptor (unknown origin) at 10 uM relative to dopamine.
In data set [8] the test system is Mus musculus. Description: Antipsychotic activity in po dosed mouse assessed as reversal of apomorphine-induced climbing activity. Format: functional.
The test system of data set [9] is Mus musculus. Description: Antipsychotic activity in po dosed mouse assessed as reversal of MK-801-induced hyperactivity. The data set is classed as functional.
The target in data set [10] is 5-hydroxytryptamine receptor 2A (Homo sapiens) (UniProt P28223). Nature of the data set: Antagonist activity at […] receptor (unknown origin) at 10 uM.
Data set [11] addresses D(2) dopamine receptor (Homo sapiens) (UniProt P14416). Description: Antagonist activity at dopamine D2 receptor (unknown origin) at 10 uM.
For data set [12], the system named is Mus musculus. Description: Toxicity in po dosed mouse assessed as catalepsy. Format: organism-based. The settings on record: in vivo.
Data set [13] deals with Mus musculus. Nature of the data set: Selectivity ratio of ED50 for po dosed mouse assessed as catalepsy to ED50 for po dosed mouse assessed as reversal of MK-801-induced hyperactivity.
The test system of data set [14] is Mus musculus. Nature of the data set: Selectivity ratio of ED50 for po dosed mouse assessed as catalepsy to ED50 for po dosed mouse assessed as reversal of apomorphine-induced climbing activity.
Data set [15] addresses T3, 5-hydroxytryptamine receptor 1A (Homo sapiens) (UniProt P08908).
T3 sequence (whole entry): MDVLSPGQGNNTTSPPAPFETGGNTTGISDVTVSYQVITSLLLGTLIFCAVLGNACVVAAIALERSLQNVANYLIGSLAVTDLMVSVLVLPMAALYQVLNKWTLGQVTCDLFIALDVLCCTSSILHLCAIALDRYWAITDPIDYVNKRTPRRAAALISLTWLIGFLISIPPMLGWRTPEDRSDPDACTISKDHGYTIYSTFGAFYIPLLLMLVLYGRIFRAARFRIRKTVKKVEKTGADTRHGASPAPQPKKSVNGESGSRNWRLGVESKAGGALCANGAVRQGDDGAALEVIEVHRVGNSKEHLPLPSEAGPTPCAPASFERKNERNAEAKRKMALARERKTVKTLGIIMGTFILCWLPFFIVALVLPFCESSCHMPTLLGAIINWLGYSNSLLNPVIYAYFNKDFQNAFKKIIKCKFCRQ
Description: Agonist activity at […] receptor (unknown origin) at 10 uM relative to 5-HT.

Data set [16] addresses D(3) dopamine receptor (Homo sapiens) (UniProt P35462). Nature of the data set: Agonist activity at dopamine D3 receptor (unknown origin) at 10 uM relative to dopamine.

Sequence of D(2) dopamine receptor (P61169 whole entry): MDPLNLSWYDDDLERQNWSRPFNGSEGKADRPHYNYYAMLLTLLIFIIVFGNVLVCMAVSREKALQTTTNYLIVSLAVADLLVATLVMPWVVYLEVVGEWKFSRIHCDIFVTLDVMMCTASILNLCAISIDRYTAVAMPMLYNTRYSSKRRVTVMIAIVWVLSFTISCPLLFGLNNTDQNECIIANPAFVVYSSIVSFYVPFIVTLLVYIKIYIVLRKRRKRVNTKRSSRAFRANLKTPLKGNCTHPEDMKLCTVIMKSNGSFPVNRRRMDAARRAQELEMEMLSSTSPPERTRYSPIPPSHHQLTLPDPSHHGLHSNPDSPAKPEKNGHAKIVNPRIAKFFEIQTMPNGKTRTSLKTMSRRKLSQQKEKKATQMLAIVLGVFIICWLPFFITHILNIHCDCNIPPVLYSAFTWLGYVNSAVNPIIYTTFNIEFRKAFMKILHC
Sequence of 5-hydroxytryptamine receptor 2A (P14842 whole entry): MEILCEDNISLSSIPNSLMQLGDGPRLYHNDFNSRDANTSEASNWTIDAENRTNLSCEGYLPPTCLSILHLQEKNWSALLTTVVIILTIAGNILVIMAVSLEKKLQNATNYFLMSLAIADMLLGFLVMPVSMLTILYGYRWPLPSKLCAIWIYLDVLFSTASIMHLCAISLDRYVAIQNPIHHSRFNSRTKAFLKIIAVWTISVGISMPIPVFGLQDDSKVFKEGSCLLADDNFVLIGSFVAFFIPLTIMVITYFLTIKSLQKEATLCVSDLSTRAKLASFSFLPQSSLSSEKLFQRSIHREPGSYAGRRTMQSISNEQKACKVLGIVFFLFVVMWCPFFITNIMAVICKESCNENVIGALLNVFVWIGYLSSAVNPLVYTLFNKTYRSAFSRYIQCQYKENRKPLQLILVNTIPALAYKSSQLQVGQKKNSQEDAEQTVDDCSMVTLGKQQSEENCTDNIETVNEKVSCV
Sequence of 5-hydroxytryptamine receptor 2A (Homo sapiens) (P28223 whole entry): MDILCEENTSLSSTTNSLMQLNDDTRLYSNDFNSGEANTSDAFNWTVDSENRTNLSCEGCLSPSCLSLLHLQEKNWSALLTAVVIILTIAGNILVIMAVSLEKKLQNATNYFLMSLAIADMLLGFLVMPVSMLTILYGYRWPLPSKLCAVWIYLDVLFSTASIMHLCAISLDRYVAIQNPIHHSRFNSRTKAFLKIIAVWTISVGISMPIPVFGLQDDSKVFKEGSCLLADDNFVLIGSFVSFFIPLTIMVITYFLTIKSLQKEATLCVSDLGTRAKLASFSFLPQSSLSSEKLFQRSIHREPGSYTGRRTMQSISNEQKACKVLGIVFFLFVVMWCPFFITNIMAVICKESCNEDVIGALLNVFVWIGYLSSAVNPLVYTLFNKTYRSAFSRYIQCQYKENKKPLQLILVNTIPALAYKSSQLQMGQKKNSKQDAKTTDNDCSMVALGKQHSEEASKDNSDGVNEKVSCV
Sequence of D(2) dopamine receptor (Homo sapiens) (P14416 whole entry): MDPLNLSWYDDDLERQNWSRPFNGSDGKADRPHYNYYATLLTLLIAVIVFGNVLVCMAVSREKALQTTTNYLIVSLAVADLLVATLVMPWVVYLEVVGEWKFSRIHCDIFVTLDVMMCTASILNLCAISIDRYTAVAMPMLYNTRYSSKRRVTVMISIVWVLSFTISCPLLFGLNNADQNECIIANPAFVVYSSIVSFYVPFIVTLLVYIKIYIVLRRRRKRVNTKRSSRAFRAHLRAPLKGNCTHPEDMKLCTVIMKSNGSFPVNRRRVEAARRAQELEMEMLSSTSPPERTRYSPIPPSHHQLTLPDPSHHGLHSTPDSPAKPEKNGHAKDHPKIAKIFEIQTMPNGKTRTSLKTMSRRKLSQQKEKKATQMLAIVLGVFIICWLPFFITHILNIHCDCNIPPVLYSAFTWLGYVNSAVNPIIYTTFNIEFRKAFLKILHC
Sequence of D(3) dopamine receptor (P19020 whole entry): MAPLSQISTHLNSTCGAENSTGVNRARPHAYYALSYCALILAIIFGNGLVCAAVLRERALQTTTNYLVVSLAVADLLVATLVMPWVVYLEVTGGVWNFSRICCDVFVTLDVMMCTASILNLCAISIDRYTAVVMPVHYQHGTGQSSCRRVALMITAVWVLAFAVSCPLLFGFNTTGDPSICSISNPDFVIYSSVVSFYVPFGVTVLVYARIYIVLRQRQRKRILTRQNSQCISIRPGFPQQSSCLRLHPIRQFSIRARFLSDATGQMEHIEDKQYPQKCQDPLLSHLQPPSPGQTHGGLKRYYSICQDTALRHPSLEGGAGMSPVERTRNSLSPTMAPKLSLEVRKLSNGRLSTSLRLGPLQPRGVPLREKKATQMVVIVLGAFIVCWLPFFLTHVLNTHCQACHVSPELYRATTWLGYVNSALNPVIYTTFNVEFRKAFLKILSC
Sequence of Voltage-gated inwardly rectifying potassium channel KCNH2 (Q12809 whole entry): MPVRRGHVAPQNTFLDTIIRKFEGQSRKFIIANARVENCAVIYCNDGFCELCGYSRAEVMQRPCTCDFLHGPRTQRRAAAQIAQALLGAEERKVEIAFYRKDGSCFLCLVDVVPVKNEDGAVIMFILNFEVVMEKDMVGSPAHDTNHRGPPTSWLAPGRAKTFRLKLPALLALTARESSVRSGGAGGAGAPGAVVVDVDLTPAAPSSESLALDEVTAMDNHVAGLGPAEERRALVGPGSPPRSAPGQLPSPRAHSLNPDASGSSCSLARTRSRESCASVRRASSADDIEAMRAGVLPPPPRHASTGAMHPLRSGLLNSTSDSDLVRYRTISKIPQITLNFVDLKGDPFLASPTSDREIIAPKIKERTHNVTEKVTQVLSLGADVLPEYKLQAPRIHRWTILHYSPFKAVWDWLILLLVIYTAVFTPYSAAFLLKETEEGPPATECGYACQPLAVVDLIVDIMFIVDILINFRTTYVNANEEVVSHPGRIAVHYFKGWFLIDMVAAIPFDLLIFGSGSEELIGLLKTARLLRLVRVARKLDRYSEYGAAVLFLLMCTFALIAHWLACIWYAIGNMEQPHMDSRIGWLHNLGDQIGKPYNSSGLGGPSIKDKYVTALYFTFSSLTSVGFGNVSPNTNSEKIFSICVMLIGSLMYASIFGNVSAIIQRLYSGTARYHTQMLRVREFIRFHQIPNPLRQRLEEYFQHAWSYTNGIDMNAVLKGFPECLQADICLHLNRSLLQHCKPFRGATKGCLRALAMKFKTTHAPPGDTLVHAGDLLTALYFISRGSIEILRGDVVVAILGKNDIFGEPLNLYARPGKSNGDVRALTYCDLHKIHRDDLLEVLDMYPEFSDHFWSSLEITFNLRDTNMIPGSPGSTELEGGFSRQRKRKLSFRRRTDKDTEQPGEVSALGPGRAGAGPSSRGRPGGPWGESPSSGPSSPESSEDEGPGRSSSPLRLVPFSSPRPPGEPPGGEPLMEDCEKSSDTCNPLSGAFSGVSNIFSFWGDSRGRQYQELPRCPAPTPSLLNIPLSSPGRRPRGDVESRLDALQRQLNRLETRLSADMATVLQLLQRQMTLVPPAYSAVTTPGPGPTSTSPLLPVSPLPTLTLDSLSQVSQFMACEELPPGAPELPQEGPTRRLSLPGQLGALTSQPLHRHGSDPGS
Sequence of Histamine H1 receptor (P31389 whole entry): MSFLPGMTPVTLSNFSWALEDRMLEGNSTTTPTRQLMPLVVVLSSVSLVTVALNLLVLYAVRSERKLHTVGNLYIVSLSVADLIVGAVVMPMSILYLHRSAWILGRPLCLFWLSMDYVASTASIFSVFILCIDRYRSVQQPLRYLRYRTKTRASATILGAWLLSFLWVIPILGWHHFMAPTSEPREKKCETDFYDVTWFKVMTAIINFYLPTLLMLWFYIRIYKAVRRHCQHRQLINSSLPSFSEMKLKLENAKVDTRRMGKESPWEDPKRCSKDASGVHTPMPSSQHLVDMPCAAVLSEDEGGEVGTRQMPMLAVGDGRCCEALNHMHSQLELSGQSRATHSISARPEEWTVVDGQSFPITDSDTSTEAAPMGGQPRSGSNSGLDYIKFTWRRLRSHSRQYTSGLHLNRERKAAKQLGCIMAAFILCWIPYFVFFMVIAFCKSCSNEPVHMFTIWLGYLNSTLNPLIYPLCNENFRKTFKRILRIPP
Sequence of D(3) dopamine receptor (Homo sapiens) (P35462 whole entry): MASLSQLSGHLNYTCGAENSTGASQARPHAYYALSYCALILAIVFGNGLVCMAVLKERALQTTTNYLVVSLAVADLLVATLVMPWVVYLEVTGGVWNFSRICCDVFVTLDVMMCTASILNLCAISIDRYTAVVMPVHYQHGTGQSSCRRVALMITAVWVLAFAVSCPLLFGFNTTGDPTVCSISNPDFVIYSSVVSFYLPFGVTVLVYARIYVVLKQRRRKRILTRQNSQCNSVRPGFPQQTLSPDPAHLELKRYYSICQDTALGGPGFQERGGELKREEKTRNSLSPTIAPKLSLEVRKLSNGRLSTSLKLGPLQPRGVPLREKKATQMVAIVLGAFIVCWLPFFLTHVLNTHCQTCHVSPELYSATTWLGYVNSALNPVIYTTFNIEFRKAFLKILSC

As usually defined, the Ki is the equilibrium dissociation constant of an inhibitor or competing ligand from its target. The IC50 is the concentration that gives 50% inhibition. High values mean weaker potency in that assay, low ones greater potency in that assay. Take `O=S(=O)(c1ccc(C(F)(F)F)cc1)N1CCC(CN2CCC(c3noc4cc(F)ccc34)CC2)CC1`: the Ki is 137 nM in [1]; 43.6 nM on Histamine H1 receptor; 21.9 nM in data set [2]; 15.7 nM in data set [3]; 237 nM at D(3) dopamine receptor; 32.6 nM on D(2) dopamine receptor. Further, it took 1390 nM to reach half-maximal inhibition in data set [4] (IC50).
A word on the ED50: it is the dose that gives a 50% effect, or the effect in half of the subjects. The term inhibition denotes the percentage by which the read-out fell short of the control. Read a low inhibition as a response near the control. For the molecule `O=[N+]([O-])c1ccc(S(=O)(=O)N2CCC(CN3CCC(c4noc5cc(F)ccc45)CC3)CC2)cc1`, the median effective dose (ED50) amounted to 0.57 mg/kg in the data set with Mus musculus [5], 0.4 mg/kg with Mus musculus [8], 0.71 mg/kg with Mus musculus [9] and 43.53 mg/kg in the data set with Mus musculus [12]. Besides, the Activity in data set [6] amounted to 6.8%; in [7] it was 5.9%; in data set [15], 8.2%; in data set [16], 3.7%. In addition, the Ki in [1] worked out at 998 nM; on Histamine H1 receptor it was 2850 nM; in [2] it was 16.9 nM; in data set [3] it was 0.79 nM; on D(3) dopamine receptor it was 16.6 nM; on D(2) dopamine receptor, 8.7 nM. Further, the inhibition in [10] and in data set [11] was 100% in each case. Further, the “Ratio ED50” value in the data set on Mus musculus [13] is 61.3; in the data set with Mus musculus [14], 108.8. The molecule further gave an IC50 in [4] of 3810 nM.
